This note sets out measurements from patent US11730720B2, “ALK5 inhibitors” (THERAVANCE BIOPHARMA R&D IP, LLC, priority 2018, dated 2023).

Where only a bound is given, the exact number is not on record here.

Experiment [1] deals with T1, recombinant human ALK5 (TGF-βR1) protein (Homo sapiens, UniProt P36897).
T1 construct: purchased Life Technologies PR9075A
T1 sequence (P36897 34-503): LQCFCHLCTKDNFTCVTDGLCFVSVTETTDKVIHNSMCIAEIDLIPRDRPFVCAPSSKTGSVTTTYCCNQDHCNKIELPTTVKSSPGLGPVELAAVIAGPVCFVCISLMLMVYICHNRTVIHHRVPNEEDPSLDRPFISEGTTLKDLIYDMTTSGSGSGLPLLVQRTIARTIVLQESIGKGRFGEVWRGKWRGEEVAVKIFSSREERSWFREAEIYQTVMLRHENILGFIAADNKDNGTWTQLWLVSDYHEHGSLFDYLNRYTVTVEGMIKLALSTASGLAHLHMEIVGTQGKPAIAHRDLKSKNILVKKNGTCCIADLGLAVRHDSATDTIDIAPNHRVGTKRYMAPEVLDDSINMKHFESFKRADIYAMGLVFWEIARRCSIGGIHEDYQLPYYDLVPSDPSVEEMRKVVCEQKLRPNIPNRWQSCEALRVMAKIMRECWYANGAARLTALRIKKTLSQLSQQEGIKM
Put plainly: Biochemical ALK5 (TGF-βR1) assay to measure pKi (LANCE Ultra ULight kinase assay). Particulars: apparent pKi, converted from pIC50 using the Cheng-Prusoff equation. Put shortly: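 TR-FRET kinase format: compound dose range 10 μM–25 pM equilibrated 60 min with human ALK5 and ULight-labelled topoisomerase 2α peptide in HEPES/MgCl2 buffer pH 7.5 with DTT. Reaction started with ATP (125 μM stock, 5× final), 60 min at 37° C, stopped with EDTA/Eu-anti-phospho antibody; pKi derived from pIC50 via Cheng-Prusoff.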
On the technique in general: TR-FRET usually uses a lanthanide donor and a delayed reading to cut background.

For experiment [2], the system named is TGF-β-stimulated SMAD3 phosphorylation in BEAS-2B cells. Put plainly: Cellular ALK5 potency assay, inhibition of TGF-β stimulated pSMAD3 formation in BEAS-2B cells. The class given is cell-based. The note with it: Homo sapiens, inhibition of TGF-β (10 ng/mL) stimulated pSMAD3 formation, 1 hour compound incubation, read-out: BEAS2B pIC50 (converted). Put shortly:
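Phospho-SMAD3 was quantified by AlphaLISA in lysates of human lung epithelial BEAS-2B cells. Compound was added 1 h (37 °C, HEPES/BSA-supplemented HBSS) before a 30 min challenge with 10 ng/mL TGF-β. Values are pIC50 relative to stimulated cells without compound.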

On to `CC(C)N1CCN(CCNc2cnc3ccc(-c4nc[nH]c4-c4cccc(Cl)c4)nc3c2)CC1` [Compound 29-1, 6-(5-(3-chlorophenyl)-1H-imidazol-4-yl)-N-(2-(4-isopropylpiperazin-1-yl)ethyl)-1,5-naphthyridin-3-amine], for which, in experiment [1], the Ki is 0.398 to 3.16 nM. The IC50 in experiment [2] was not above 20 nM.

Take `CNCCn1cc(-c2cnc3ccc(-c4c[nH]nc4-c4ccc(F)c(F)c4)nc3c2)cn1` [Compound 8-12, 2-(4-(6-(3-(3,4-difluorophenyl)-1H-pyrazol-4-yl)-1,5-naphthyridin-3-yl)-1H-pyrazol-1-yl)-N-methylethan-1-amine]: the Ki in experiment [1] was not above 0.0316 nM. Moreover, the IC50 in experiment [2] is not above 20 nM.

As for `Fc1ccc(Cl)cc1-c1n[nH]cc1-c1ccc2ncc(-c3cnc4n3CCNC4)cc2n1` [Compound 1-107, 2-[3-(5-chloro-2-fluoro-phenyl)-1H-pyrazol-4-yl]-7-(5,6,7,8-tetrahydroimidazo[1,2-a]pyrazin-3-yl)-1,5-naphthyridine], in experiment [1], the Ki is 0.0398 to 0.316 nM. The IC50 in experiment [2] was 25.1 to 158 nM.

On to `Fc1ccc(Cl)cc1-c1n[nH]cc1-c1ccc2ncc(-c3nnn4c3NCCC4)cc2n1` [Compound 1-118, 2-[3-(5-chloro-2-fluoro-phenyl)-1H-pyrazol-4-yl]-7-(4,5,6,7-tetrahydrotriazolo[1,5-a]pyrimidin-3-yl)-1,5-naphthyridine], for which the Ki in experiment [1] is 0.0398 to 0.316 nM. In experiment [2], the IC50 is not above 20 nM.

As to `Fc1cc(F)c(-c2n[nH]cc2-c2ccc3ncc(NCC4CN5CCN4CC5)cc3n2)cc1Cl` (stereo not drawn) [Compound 6-4, 6-[3-(5-chloro-2,4-difluoro-phenyl)-1H-pyrazol-4-yl]-N-(1,4-diazabicyclo[2.2.2]octan-2-ylmethyl)-1,5-naphthyridin-3-amine], the Ki in experiment [1] is 0.0398 to 0.316 nM. The IC50 in experiment [2] was 25.1 to 158 nM.

As to `CN1C[C@H]2C[C@@H]1CN2c1cnc2ccc(-c3c[nH]nc3-c3cc(Cl)ccc3F)nc2c1` (racemic) [Compound 1-42, 2-[3-(5-chloro-2-fluoro-phenyl)-1H-pyrazol-4-yl]-7-[rac-(1R,4R)-5-methyl-2,5-diazabicyclo[2.2.1]heptan-2-yl]-1,5-naphthyridine], the Ki in experiment [1] is 3.98 to 31.6 nM. Moreover, in experiment [2], the IC50 was 25.1 to 158 nM.

As for `CNC(=O)C1CN(c2cnc3ccc(-c4c[nH]nc4-c4cc(Cl)ccc4F)nc3c2)CCN1C` (racemic) [Compound 1-77, rac-(2R)-4-[6-[3-(5-chloro-2-fluoro-phenyl)-1H-pyrazol-4-yl]-1,5-naphthyridin-3-yl]-N,1-dimethyl-piperazine-2-carboxamide], the Ki in experiment [1] was 0.0398 to 0.316 nM. Besides, the IC50 in experiment [2] is 25.1 to 158 nM.

Take `Fc1ccc(Cl)cc1-c1[nH]cnc1-c1ccc2ncc(N3CCNCC3)cc2n1` [Compound 2-8, 2-[5-(5-chloro-2-fluoro-phenyl)-1H-imidazol-4-yl]-7-piperazin-1-yl-1,5-naphthyridine]: in experiment [1], the Ki is 0.0398 to 0.316 nM. Besides, the IC50 in experiment [2] was not above 20 nM.

Turning to `OCCN1CCN(c2cnc3ccc(-c4c[nH]nc4-c4ccc(F)c(F)c4)nc3c2)CC1` [Compound 8-8, 2-[4-[6-[3-(3,4-difluorophenyl)-1H-pyrazol-4-yl]-1,5-naphthyridin-3-yl]piperazin-1-yl]ethanol], the Ki in experiment [1] is 3.98 to 31.6 nM. The IC50 in experiment [2] was 25.1 to 158 nM.

In the case of `CNC1CCN(c2cnc3ccc(-c4c(-c5cc(Cl)ccc5F)[nH]c5cccnc45)nc3c2)CC1` [Compound 25-1, 1-[6-[2-(5-chloro-2-fluoro-phenyl)-1H-pyrrolo[3,2-b]pyridin-3-yl]-1,5-naphthyridin-3-yl]-N-methyl-piperidin-4-amine], the Ki in experiment [1] was 3.98 to 31.6 nM. Moreover, the IC50 in experiment [2] is 200 to 1260 nM.

In the case of `Cn1cccc(-c2cnc3ccc(-c4c[nH]nc4-c4ccc(F)c(F)c4)nc3c2)c1=O` [Compound 8-16, 3-[6-[3-(3,4-difluorophenyl)-1H-pyrazol-4-yl]-1,5-naphthyridin-3-yl]-1-methyl-pyridin-2-one], the Ki in experiment [1] is 3.98 to 31.6 nM. The IC50 in experiment [2] was 25.1 to 158 nM.

With `Fc1ccc(Cl)cc1-c1n[nH]cc1-c1ccc2ncc(N3CCn4nc(N5CCN(Cc6ccccc6)CC5)nc4C3)cc2n1` [Compound 1-46, 7-[2-(4-benzylpiperazin-1-yl)-6,8-dihydro-5H-[1,2,4]triazolo[1,5-a]pyrazin-7-yl]-2-[3-(5-chloro-2-fluoro-phenyl)-1H-pyrazol-4-yl]-1,5-naphthyridine], in experiment [1], the Ki was 0.0398 to 0.316 nM. In experiment [2], the IC50 is 25.1 to 158 nM.

As for `Clc1cccc(-c2[nH]cnc2-c2ccc3ncc(NCCN4CCNCC4)cc3c2)c1` [Compound 24-4, 6-[5-(3-chlorophenyl)-1H-imidazol-4-yl]-N-(2-piperazin-1-ylethyl)quinolin-3-amine], the Ki in experiment [1] is 0.398 to 3.16 nM. Also, the IC50 in experiment [2] was 25.1 to 158 nM.

For `CN(C)C1CCN(c2cnc3ccc(-c4nc[nH]c4-c4cc(Cl)ccc4F)cc3c2)C1` (racemic) [Compound 17-5, rac-(3S)-1-[6-[5-(5-chloro-2-fluoro-phenyl)-1H-imidazol-4-yl]-3-quinolyl]-N,N-dimethyl-pyrrolidin-3-amine], the Ki in experiment [1] was 0.0398 to 0.316 nM. Moreover, the IC50 in experiment [2] is 25.1 to 158 nM.

As for `CC(C)N1CCN(c2cnc3ccc(-c4c[nH]nc4-c4cc(Cl)ccc4F)nc3c2)CC1` [Compound 1-43, 2-[3-(5-chloro-2-fluoro-phenyl)-1H-pyrazol-4-yl]-7-(4-isopropylpiperazin-1-yl)-1,5-naphthyridine], in experiment [1], the Ki is 0.0398 to 0.316 nM. The IC50 in experiment [2] is 25.1 to 158 nM.

Turning to `NC(=O)C1CN(c2cnc3ccc(-c4c[nH]nc4-c4cc(Cl)ccc4F)nc3c2)CCN1` (racemic) [Compound 1-50, rac-(2S)-4-[6-[3-(5-chloro-2-fluoro-phenyl)-1H-pyrazol-4-yl]-1,5-naphthyridin-3-yl]piperazine-2-carboxamide], the Ki in experiment [1] is 0.398 to 3.16 nM. Further, the IC50 in experiment [2] is 25.1 to 158 nM.

In the case of `Fc1cc(F)c(-c2n[nH]cc2-c2ccc3ncc(NC4CCNCC4)cc3n2)cc1Cl` [Compound 6-10, 6-[3-(5-chloro-2,4-difluoro-phenyl)-1H-pyrazol-4-yl]-N-(4-piperidyl)-1,5-naphthyridin-3-amine], in experiment [1], the Ki was 0.0398 to 0.316 nM. In addition, in experiment [2], the IC50 is 200 to 1260 nM.

Turning to `CC1(C)CCCN1CCNc1cnc2ccc(-c3c[nH]nc3-c3cc(Cl)ccc3F)nc2c1` [Compound 1-13, 6-[3-(5-chloro-2-fluoro-phenyl)-1H-pyrazol-4-yl]-N-[2-(2,2-dimethylpyrrolidin-1-yl)ethyl]-1,5-naphthyridin-3-amine], the Ki in experiment [1] is 0.0398 to 0.316 nM. Besides, the IC50 in experiment [2] is not above 20 nM.

With `CC(C)N1CC2CN(c3cnc4ccc(-c5c[nH]nc5-c5cc(Cl)ccc5F)nc4c3)C2C1` (stereo not drawn) [Compound 1-73, 2-[3-(5-chloro-2-fluoro-phenyl)-1H-pyrazol-4-yl]-7-(3-isopropyl-3,6-diazabicyclo[3.2.0]heptan-6-yl)-1,5-naphthyridine], the Ki in experiment [1] was 3.98 to 31.6 nM. For the same compound, the IC50 in experiment [2] was 25.1 to 158 nM.

Turning to `Fc1ccc(Cl)cc1-c1nnn(Cc2ccccc2)c1-c1ccc2ncccc2n1` [Compound 4-1, 2-(1-benzyl-4-(5-chloro-2-fluorophenyl)-1H-1,2,3-triazol-5-yl)-1,5-naphthyridine], the Ki in experiment [1] was 0.398 to 3.16 nM. Further, the IC50 in experiment [2] is 200 to 1260 nM.

On to `CN1CCC(N(C)c2cnc3ccc(-c4c[nH]nc4-c4cc(Cl)ccc4F)nc3c2)CC1` [Compound 1-37, 6-[3-(5-chloro-2-fluoro-phenyl)-1H-pyrazol-4-yl]-N-methyl-N-(1-methyl-4-piperidyl)-1,5-naphthyridin-3-amine], for which the Ki in experiment [1] was 0.0398 to 0.316 nM. Besides, the IC50 in experiment [2] was 25.1 to 158 nM.

Consider `Fc1ccc(Cl)cc1-c1n[nH]cc1-c1ccc2ncc(-c3[nH]nc4c3CCN4)cc2n1` [Compound 1-125, 2-[3-(5-chloro-2-fluoro-phenyl)-1H-pyrazol-4-yl]-7-(2,4,5,6-tetrahydropyrrolo[2,3-c]pyrazol-3-yl)-1,5-naphthyridine], for which, in experiment [1], the Ki was 0.0398 to 0.316 nM. Further, the IC50 in experiment [2] is 25.1 to 158 nM.

As to `CN1CCN(C2CCN(c3cnc4ccc(-c5nc[nH]c5-c5cc(Cl)ccc5F)cc4c3)CC2)CC1` [Compound 17-7, 6-[5-(5-chloro-2-fluoro-phenyl)-1H-imidazol-4-yl]-3-[4-(4-methylpiperazin-1-yl)-1-piperidyl]quinoline], in experiment [1], the Ki is 0.0398 to 0.316 nM. Further, the IC50 in experiment [2] was 25.1 to 158 nM.

Regarding `Fc1ccc(Cl)cc1-c1n[nH]cc1-c1ccc2ncc(N3CCn4nc(C5=CCNC5)nc4C3)cc2n1` [Compound 1-85, 2-(3-(5-chloro-2-fluorophenyl)-1H-pyrazol-4-yl)-7-(2-(2,5-dihydro-1H-pyrrol-3-yl)-5,6-dihydro-[1,2,4]triazolo[1,5-a]pyrazin-7(8H)-yl)-1,5-naphthyridine], in experiment [1], the Ki was not above 0.0316 nM. Besides, the IC50 in experiment [2] was 25.1 to 158 nM.
